Assay results from ChEMBL document CHEMBL1125081, “Stereospecific synthesis and antiviral properties of different enantiomerically pure carbocyclic 2'-deoxyribonucleoside analogues derived from common chiral pools: (+)-(1R,5S)- and (-)-(1S,5R)-2-oxabicyclo[3.3.0]oct-6-en-3-one” (1990).
In brackets after ≈: the same amount, converted by molar mass.

Legend:
[1] = system: Human immunodeficiency virus 1; experiment: Evaluated for minimum inhibitory concentration (MIC) against MT-4 cells of human immunodeficiency virus type-1 (HIV-1); format: functional, MT4
[2] = system: HeLa; experiment: Evaluated for minimum inhibitory concentration against HeLa cells (human carcinoma) infected with VSV, Coxs, B4, polio-1 virus; format: functional
[3] = system: Human alphaherpesvirus 1; experiment: Evaluated for minimum inhibitory concentration against KOS, F, McIntyre strains of Herpes simplex virus (HSV-1) in primary rabbit kidney cells; format: functional
[4] = system: Human alphaherpesvirus 1; experiment: Evaluated for minimum inhibitory concentration against TK-B2006 strain of Herpes simplex virus (HSV-1) in primary rabbit kidney cells; format: functional
[5] = system: Human alphaherpesvirus 2; experiment: Evaluated for minimum inhibitory concentration against G,196, Lyons strains of Herpes simplex virus (HSV-2) in primary rabbit kidney cells; format: functional
[6] = system: Vesicular stomatitis virus; experiment: Evaluated for minimum inhibitory concentration against Vesicular stomatitis virus (VSV) in primary rabbit kidney cells; format: functional
[7] = system: Vero; experiment: Evaluated for minimum inhibitory concentration against Vero cells (African green monkey) infected with PV-3, RV-1, SV, Coxs B4, SFV virus; format: functional; details: Chlorocebus sabaeus
[8] = system: Vaccinia virus; experiment: Evaluated for minimum inhibitory concentration against Vaccinia virus (VV) in primary rabbit kidney cells; format: functional; details: Orthopoxvirus vaccinia
[9] = system: Vesicular stomatitis virus; experiment: Evaluated for minimum inhibitory concentration (MIC) against Vesicular stomatitis virus (VSV); format: functional

Row | SMILES | MIC [1] | MIC [2] | MIC [3] | MIC [4] | MIC [5] | MIC [6] | MIC [7] | MIC [8] | MIC [9]
1 | Cc1cn(C2CC3OCC2C3CO)c(=O)[nH]c1=O (stereo unspecified) | > 250 µg/mL | > 400 µg/mL | > 400 µg/mL | > 400 µg/mL | > 400 µg/mL | > 400 µg/mL | > 400 µg/mL | > 400 µg/mL | 
2 | O=c1[nH]c(=O)n([C@H]2C[C@H](O)[C@@H](CO)O2)cc1/C=C/Br [BRIVUDINE] |  | > 400 µg/mL | 0.02 µg/mL (≈ 0.06 µM) | > 200 µg/mL | 7 µg/mL (≈ 21 µM) | > 400 µg/mL | > 400 µg/mL | 20 µg/mL (≈ 60 µM) | 
3 | Nc1nccc2c1ncn2[C@@H]1C[C@H](CO)[C@@H](O)[C@H]1O [3-DEAZAARISTEROMYCIN A] |  | 2 µg/mL (≈ 7.57 µM) | > 400 µg/mL | 150 µg/mL (≈ 568 µM) | > 400 µg/mL | 0.7 µg/mL (≈ 2.65 µM) | 0.7 µg/mL (≈ 2.65 µM) | 0.7 µg/mL (≈ 2.65 µM) | 
4 | Cc1cn([C@H]2CC[C@@H](CO)C2)c(=O)[nH]c1=O | > 250 µg/mL | > 400 µg/mL | > 400 µg/mL | > 400 µg/mL | > 400 µg/mL | > 400 µg/mL | > 400 µg/mL | > 400 µg/mL | 
5 | Cc1cn([C@@H]2C[C@H](CO)[C@H](O)C2)c(=O)[nH]c1=O | > 250 µg/mL | > 400 µg/mL | > 400 µg/mL | > 400 µg/mL | > 400 µg/mL | > 400 µg/mL | > 200 µg/mL | > 400 µg/mL | 
6 | Cc1cn([C@H]2C[C@H](O)[C@@H](CO)[C@@H]2C)c(=O)[nH]c1=O | > 250 µg/mL | > 400 µg/mL | > 400 µg/mL | > 400 µg/mL | > 400 µg/mL |  | > 400 µg/mL | > 400 µg/mL | > 400 µg/mL
7 | Cc1cn([C@H]2C[C@@H](CO)[C@H](O)C2)c(=O)[nH]c1=O | > 160 µg/mL | > 100 µg/mL | > 400 µg/mL |  | > 400 µg/mL | > 400 µg/mL | > 400 µg/mL | > 400 µg/mL | 
8 | Nc1ncnc2c1ncn2[C@@H]1C[C@H](CO)[C@@H](O)C1 | > 50 µg/mL | > 100 µg/mL | 2 µg/mL (≈ 8.02 µM) | 100 µg/mL (≈ 401 µM) | 20 µg/mL (≈ 80.2 µM) | > 400 µg/mL | > 100 µg/mL | 100 µg/mL (≈ 401 µM) | 
9 | Cc1cn([C@@H]2C[C@H](CO)[C@@H](O)C2)c(=O)[nH]c1=O |  | > 100 µg/mL | 0.2 µg/mL (≈ 0.832 µM) | 40 µg/mL (≈ 166 µM) | 2 µg/mL (≈ 8.32 µM) | > 200 µg/mL | > 100 µg/mL | 2 µg/mL (≈ 8.32 µM) | 
10 | Cc1cn([C@H]2C[C@H](N=[N+]=[N-])[C@@H](CO)O2)c(=O)[nH]c1=O [ZIDOVUDINE] | 0.001 µg/mL (≈ 0.00374 µM) |  |  |  |  |  |  |  | 
11 | NC(=O)c1ncn([C@@H]2O[C@H](CO)[C@@H](O)[C@H]2O)n1 [RIBAVIRIN] |  | 20 µg/mL (≈ 81.9 µM) | > 400 µg/mL | > 400 µg/mL | > 400 µg/mL | 300 µg/mL (≈ 1230 µM) | 150 µg/mL (≈ 614 µM) | 10 µg/mL (≈ 40.9 µM) | 
